pEC50: −log10 of the molar value. Read-outs that look alike come from different tables or passages of the source.
Key:
[1] = system: MPP^+-treated BE(2)-M17 cells; test: cell viability (MTT) in MPP^+-treated BE(2)-M17 cells; format: cell-based; details: Homo sapiens, read-out: cell viability
Protocol: To examine neuroprotective potential of LM compounds, BE(2)-M17 cells were plated onto 96-well plate [1 × 10^4/well for cell viability and lactate dehydrogenase (LDH) release assays] or 24-well plate (5 × 10^4/well for ROS assay) with retinoic acid addition (5 μM) on day 1 to initiate neuronal differentiation. On day 5, after removing retinoic acid, cells were pre-treated with LM compounds (1–10 μM) for 8 h, followed by addition of 0.62 mM MPP^+ for 40 h. The cell viability was evaluated by MTT assay as described, and the release of LDH in cell culture medium was measured by using LDH cytotoxicity assay kit (Cayman Chemical). The absorbance was read at 490 nm with Multiskan GO microplate reader (Thermo Fisher Scientific).

GCLC = test: Western blot GCLC in MPP^+-treated BE(2)-M17 cells; format: cell-based, human; details: BE(2)-M17, compound 10 μM + 0.62 mM MPP^+; MPP^+ alone 86%; untreated = 100%
Protocol: (§1) HMC3 (2 × 10^5/6-well) or BE(2)-M17 (4 × 10^5/6-well) cells were lysed in buffer (composition: 50 mM Tris-HCl pH8.0, 2 mM EDTA pH8.0, 150 mM NaCl, 0.5% sodium deoxycholate, 0.1% SDS, 50 mM NaF, 1% NP40) containing the protease and/or phosphatase inhibitor cocktail (Sigma-Aldrich). After sonication, the lysates were centrifuged (12,000 × g for 10 min at 4°C) and protein concentrations determined (Bradford protein assay; Bio-Rad, Hercules, CA, USA). Aliquots of protein (20 μg) were separated by electrophoresis using 10%−12% SDS–polyacrylamide gel followed by transfer to a polyvinylidene fluoride (PVDF) membrane. After being blocked, the PVDF membrane was stained with NLRP3 (#15101s), caspase-1 (CASP1; #3866s), iNOS (#20609), IL-1β (#12242), CREB (#9192), BCL2-associated X (BAX; #2772; 1:1,000; Cell Signaling), IL-6 (#ab6672), TNF-α (#ab9739), GCLC (#ab41463), BDNF (#ab108319; 1:1,000; Abcam, Cambridge, UK), NLRP1 (#NBP-1-54899; 1:500; Novus Biologicals, Centennial, CO, USA), NRF2 (#ABE413), NQO1 (#N5288), p-CREB (Ser133; #06-519; 1:1,000; Sigma-Aldrich), PGC-1α (#GTX37356; 1:1,000; GeneTex, Irvine, CA, USA), B-cell lymphoma 2 (BCL2; #IR94-392; 1:1,000; iReal Biotechnology, New Taipei City, Taiwan), or glyceraldehyde-3-phosphate dehydrogenase (GAPDH; #30000002; 1:1,000; MDBio, Taipei, Taiwan) primary antibody at room temperature 2 h or 4°C overnight. The immune complexes were detected using horseradish peroxidase (HRP)-conjugated goat anti-mouse or goat anti-rabbit IgG antibody (1:5,000; GeneTex) and chemiluminescent HRP substrate (Millipore, Burlington, MA, USA). Immunoreactive bands were captured (ImageQuant™ LAS 4000, GE Healthcare, Chicago, IL, USA) and quantified (Multi Gauge V3.0 software, Fujifilm, Tokyo, Japan).

caspase-3 = caspase-3 activity assay in MPP^+-treated BE(2)-M17 cells; format: cell-based, human
Protocol: BE(2)-M17 cells were plated onto six-well (4 × 10^5/well) and treated with retinoic acid, LM compounds (10 μM), and MPP^+ as described. Cells were collected on day 7 and lysed by six freeze/thaw cycles. Types of substrates applied were: Ac-Tyr-Val-Ala-Asp-7-amino-4-trifluoromethyl coumarin (YVAD-AFC) for caspase-1, Ac-Val-Glu-Ile-Asp-7-amino-4-trifluoromethyl coumarin (VEID-AFC) for caspase-6 (BioVision, Milpitas, CA, USA), and Ac-Asp-Glu-Val-Asp-7-amido-4-methylcoumarin (DEVD-AMC) for caspase-3 (Sigma-Aldrich). The reaction mixtures were incubated for 1.5 h at 37°C per the manufacturer's instructions. The fluorescence intensity at 400 nm excitation and 505 nm emission (caspase-1 and caspase-6) or 360 nm excitation and 460 nm emission (caspase-3) wavelengths were recorded (BioTek FLx800).

PGC-1α = test: Western blot PGC-1α in MPP^+-treated BE(2)-M17 cells; format: cell-based, human; details: BE(2)-M17, compound 10 μM + 0.62 mM MPP^+; MPP^+ alone 75%; untreated = 100%
Protocol: as §1

[2] = DPPH free radical scavenging activity; details: 10–160 μM, 30 min, room temperature
Protocol: Stable 1,1-diphenyl-2-picrylhydrazyl (DPPH) radical in ethanol (100 μM; Sigma-Aldrich) was used to measure the antioxidant activity of these LM compounds. After addition of quercetin (positive control) or LM compound (10–160 μM), the mixture was vortexed for 15 s and incubated at room temperature for 30 min. Subsequently, the mixture was measured spectrophotometrically at 517 nm (Multiskan GO microplate spectrophotometer; Thermo Fisher Scientific). The free radical scavenging activity was calculated as the percentage of DPPH discoloration using the formula 1 – (absorbance of sample/absorbance of control) × 100%, with half maximal effective concentration (EC50) calculated using the interpolation method.

NQO1 = test: Western blot NQO1 in MPP^+-treated BE(2)-M17 cells; format: cell-based, human; details: BE(2)-M17, compound 10 μM + 0.62 mM MPP^+; MPP^+ alone 53%; untreated = 100%
Protocol: HMC3 (2 × 10^5/6-well) or BE(2)-M17 (4 × 10^5/6-well) cells were lysed in buffer (composition: 50 mM Tris-HCl pH8.0, 2 mM EDTA pH8.0, 150 mM NaCl, 0.5% sodium deoxycholate, 0.1% SDS, 50 mM NaF, 1% NP40) containing the protease and/or phosphatase inhibitor cocktail (Sigma-Aldrich). After sonication, the lysates were centrifuged (12,000 × g for 10 min at 4°C) and protein concentrations determined (Bradford protein assay; Bio-Rad, Hercules, CA, USA). […] The immune complexes were detected using horseradish peroxidase (HRP)-conjugated goat anti-mouse or goat anti-rabbit IgG antibody (1:5,000; GeneTex) and chemiluminescent HRP substrate (Millipore, Burlington, MA, USA). Immunoreactive bands were captured (ImageQuant™ LAS 4000, GE Healthcare, Chicago, IL, USA) and quantified (Multi Gauge V3.0 software, Fujifilm, Tokyo, Japan).

NRF2 = test: Western blot NRF2 in MPP^+-treated BE(2)-M17 cells; format: cell-based, human; details: BE(2)-M17, compound 10 μM + 0.62 mM MPP^+; MPP^+ alone 75%; untreated = 100%
Protocol: as §1

p-CREB (Ser133) = test: Western blot p-CREB (Ser133) in MPP^+-treated BE(2)-M17 cells; format: cell-based, human; details: BE(2)-M17, compound 10 μM + 0.62 mM MPP^+; MPP^+ alone 83%; untreated = 100%
Protocol: (§2) HMC3 (2 × 10^5/6-well) or BE(2)-M17 (4 × 10^5/6-well) cells were lysed in buffer (composition: 50 mM Tris-HCl pH8.0, 2 mM EDTA pH8.0, 150 mM NaCl, 0.5% sodium deoxycholate, 0.1% SDS, 50 mM NaF, 1% NP40) containing the protease and/or phosphatase inhibitor cocktail (Sigma-Aldrich). After sonication, the lysates were centrifuged (12,000 × g for 10 min at 4°C) and protein concentrations determined (Bradford protein assay; Bio-Rad, Hercules, CA, USA). Aliquots of protein (20 μg) were separated by electrophoresis using 10%−12% SDS–polyacrylamide gel followed by transfer to a polyvinylidene fluoride (PVDF) membrane. […] The immune complexes were detected using horseradish peroxidase (HRP)-conjugated goat anti-mouse or goat anti-rabbit IgG antibody (1:5,000; GeneTex) and chemiluminescent HRP substrate (Millipore, Burlington, MA, USA). Immunoreactive bands were captured (ImageQuant™ LAS 4000, GE Healthcare, Chicago, IL, USA) and quantified (Multi Gauge V3.0 software, Fujifilm, Tokyo, Japan).

BDNF = test: Western blot BDNF in MPP^+-treated BE(2)-M17 cells; format: cell-based, human; details: BE(2)-M17, compound 10 μM + 0.62 mM MPP^+; MPP^+ alone 78%; untreated = 100%
Protocol: as §2

BCL2 = test: Western blot BCL2 in MPP^+-treated BE(2)-M17 cells; format: cell-based, human; details: BE(2)-M17, compound 10 μM + 0.62 mM MPP^+; MPP^+ alone 70%; untreated = 100%
Protocol: as §2

IL-6 = test: Western blot IL-6 in MPP^+-stimulated HMC3 cells; format: cell-based, human; details: HMC3, 4 mM MPP^+ alone; untreated = 100%
Protocol: as §2

[3] = BE(2)-M17, compound 10 μM + 0.62 mM MPP^+, MPP^+-untreated = 100%

| SMILES | viability at 10 µM ([1]; retinoic acid-differentiated BE(2)-M17, compound 10 μM 8 h, then 0.62 mM MPP^+ 40 h, MPP^+ alone 81%, untreated = 100%) | GCLC level (GCLC) | caspase-3 activity (caspase-3; [3]) | PGC-1α level (PGC-1α) | pEC50 [2] | NQO1 level (NQO1) | NRF2 level (NRF2) | viability at 10 µM [1] | p-CREB (Ser133) level (p-CREB (Ser133)) | BDNF level (BDNF) | BCL2 level (BCL2) | IL-6 expression (IL-6) | caspase-3 activity (caspase-3; BE(2)-M17, 0.62 mM MPP^+ alone, untreated = 100%) |
| --- | --- | --- | --- | --- | --- | --- | --- | --- | --- | --- | --- | --- | --- |
| Cc1ccc(/C=C/C(=O)c2c(O)c3ccccc3oc2=O)cc1 [LM-016] | 95 to 97% | 99–106% | 102% | 98–109% | 3.90 | 81–86% | 99–101% |  |  |  |  |  |  |
| CN(C)c1ccc(/C=C/C(=O)c2c(O)c3ccccc3oc2=O)cc1 [LM-021, (E)-3-(3-(4-(dimethylamino)phenyl)acryloyl)-4-hydroxy-2H-chromen-2-one] |  | 99–106% | 101% | 98–109% | 4.19 |  | 99–101% | 95 to 97% | 102–105% | 109–110% | 99–110% |  |  |
| O=C(/C=C/c1ccccc1O)c1c(O)c2ccccc2oc1=O [LM-036] |  | 99–106% | 101% | 98–109% |  | 81–86% | 99–101% | 95 to 97% | 102–105% | 109–110% | 99–110% |  |  |
| C[n+]1ccc(-c2ccccc2)cc1 [MPP^+, 1-methyl-4-phenyl pyridinium, reference compound] |  |  |  |  |  |  |  |  |  |  |  | 182% | 114% |
